US7495002B2, “3-methyl-7-butinyl-xanthines, the preparation thereof and their use as pharmaceutical compositions” (Boehringer Ingelheim International GmbH, priority 2004, dated 2009)

Columns and labels:
[1] = biological target: T1, DPP-IV (Homo sapiens, UniProt P27487); assay: DPP-IV assay with extract of Caco-2 cells as DPP IV source, AFC substrate, fluorescence; type: biochemical; details: extract of human colon carcinoma cell line Caco-2; substrate 100 μM; 60 minutes at ambient temperature; read-out: DPP IV inhibition IC50
T1 construct: an extract of the human colon carcinoma cell line Caco-2 is used as the DPP IV source; endogenous in cells; host or cells: Caco-2 (human colon carcinoma), differentiated to induce DPP-IV expression; Nonidet-P40 solubilised extract
T1 sequence (P27487 whole entry): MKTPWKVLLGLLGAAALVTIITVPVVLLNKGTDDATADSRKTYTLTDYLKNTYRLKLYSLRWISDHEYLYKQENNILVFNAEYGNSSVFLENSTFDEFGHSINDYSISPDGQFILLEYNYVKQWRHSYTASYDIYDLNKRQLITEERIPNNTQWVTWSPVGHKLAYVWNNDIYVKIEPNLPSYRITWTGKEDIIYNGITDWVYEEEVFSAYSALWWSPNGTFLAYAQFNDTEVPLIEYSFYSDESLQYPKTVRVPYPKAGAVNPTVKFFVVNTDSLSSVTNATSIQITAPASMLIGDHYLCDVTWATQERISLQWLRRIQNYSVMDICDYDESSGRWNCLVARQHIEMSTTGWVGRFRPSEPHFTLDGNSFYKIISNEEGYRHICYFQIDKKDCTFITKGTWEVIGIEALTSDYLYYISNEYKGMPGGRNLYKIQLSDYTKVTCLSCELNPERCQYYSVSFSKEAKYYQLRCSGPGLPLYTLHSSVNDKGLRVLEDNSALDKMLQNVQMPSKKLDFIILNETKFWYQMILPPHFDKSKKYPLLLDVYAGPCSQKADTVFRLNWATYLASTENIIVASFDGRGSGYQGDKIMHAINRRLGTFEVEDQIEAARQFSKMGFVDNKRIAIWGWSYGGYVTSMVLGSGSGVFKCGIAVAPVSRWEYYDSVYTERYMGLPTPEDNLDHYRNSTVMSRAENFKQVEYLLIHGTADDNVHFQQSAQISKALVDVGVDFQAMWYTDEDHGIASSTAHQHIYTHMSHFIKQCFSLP
Procedure: The differentiation of the cells in order to induce the DPP-IV expression was carried out in accordance with the description by Reiher et al. in an article entitled “Increased expression of intestinal cell line Caco-2”, which appeared in Proc. Natl. Acad. Sci. Vol. 90, pp. 5757-5761 (1993). The cell extract was obtained from cells solubilised in a buffer (10 mM Tris HCl, 0.15 M NaCl, 0.04 t.i.u. aprotinin, 0.5% Nonidet-P40, pH 8.0) by centrifugation at 35,000 g for 30 minutes at 4° C. (to remove cell debris).
The DPP-IV assay was carried out as follows:
50 μl of substrate solution (AFC; AFC is amido-4-trifluoromethylcoumarin), final concentration 100 μM, were placed in black microtitre plates. 20 μl of assay buffer (final concentrations 50 mM Tris HCl pH 7.8, 50 mM NaCl, 1% DMSO) was pipetted in. The reaction was started by the addition of 30 μl of solubilised Caco-2 protein (final concentration 0.14 μg of protein per well). The test substances under investigation were typically added prediluted to 20 μl, while the volume of assay buffer was then reduced accordingly. The reaction was carried out at ambient temperature, the incubation period was 60 minutes. Then the fluorescence was measured in a Victor 1420 Multilabel Counter, with the excitation wavelength at 405 nm and the emission wavelength at 535 nm. Dummy values (corresponding to 0% activity) were obtained in mixtures with no Caco-2 protein (volume replaced by assay buffer), control values (corresponding to 100% activity) were obtained in mixtures without any added substance. The potency of the test substances in question, expressed as IC50 values, were calculated from dosage/activity curves consisting of 11 measured points in each case.

[2] = system: rats; assay: Tolerability in rats after oral administration; type: in vivo; details: oral administration of 10 mg/kg

Row | Compound | IC50 [1] [nM] | toxic side effects [2]
1 | CC#CCn1c(N(C)C[C@H](C)N)nc2c1c(=O)n(Cc1ccc3nccnc3c1)c(=O)n2C [2(10), 1-[(quinoxalin-6-yl)methyl]-3-methyl-7-(2-butyn-1-yl)-8-[(S)-(2-amino-propyl)-methylamino]-xanthine] | 3 | 
2 | CC#CCn1c(N(C)C[C@H](C)N)nc2c1c(=O)n(Cc1ncccc1C#N)c(=O)n2C [2(11), 1-[(3-cyano-pyridin-2-yl)methyl]-3-methyl-7-(2-butyn-1-yl)-8-[(S)-(2-amino-propyl)-methylamino]-xanthine] | 3 | 
3 | CC#CCn1c(N(C)CC(C)(C)N)nc2c1c(=O)n(Cc1nc(C)c3ccccc3n1)c(=O)n2C [2(1), 1-[(4-methyl-quinazolin-2-yl)methyl]-3-methyl-7-(2-butyn-1-yl)-8-[(2-amino-2-methyl-propyl)-methylamino]-xanthine] | 3 | 
4 | CC#CCn1c(N(C)C[C@H](C)N)nc2c1c(=O)n(Cc1nc(C)c3ccccc3n1)c(=O)n2C [Example 2(4), 1-[(4-methyl-quinazolin-2-yl)methyl]-3-methyl-7-(2-butyn-1-yl)-8-[(S)-(2-amino-propyl)-methylamino]-xanthine] | 2 | no toxic side effects could be detected
5 | CC#CCn1c(N(C)CCN)nc2c1c(=O)n(Cc1nc(C)c3ccccc3n1)c(=O)n2C [1(1), 1-[(4-methyl-quinazolin-2-yl)methyl]-3-methyl-7-(2-butyn-1-yl)-8-[(2-amino-ethyl)-methylamino]-xanthine] | 2 | 
6 | CC#CCn1c(N(C)C[C@H](C)N)nc2c1c(=O)n(Cc1ncc3ccccc3c1C#N)c(=O)n2C [2(12), 1-[(4-cyano-isoquinolin-3-yl)methyl]-3-methyl-7-(2-butyn-1-yl)-8-[(S)-(2-amino-propyl)-methylamino]-xanthine] | 2 | 
